Measurements: US3969532A, “1-Aryl-3-(2-hydroxyethyl) thioureas for treating depression” (The Dow Chemical Company, priority 1975, dated 1976)
Read-outs that look alike come from different tables or passages of the source.

Test system: reserpine-induced ptosis
Assay: Antagonism of reserpine-induced ptosis in mice (antidepressant test)
Assay type: in vivo
Settings: for inhibition of reserpine-induced ptosis (in words): comparative trials, dosages of 60 mg/kg (i.p.); for ED50: Mus musculus, 1.25 h
[1] = mice, compound oral 30 minutes before i.p. reserpine, ptosis noted 45 minutes after reserpine, read-out: ED50 (median effective dose protecting 50% of mice from reserpine-induced ptosis), oral
[2] = ip, mice, compound i.p. 30 minutes before i.p. reserpine, ptosis noted 45 minutes after reserpine, read-out: ED50 (median effective dose protecting 50% of mice from reserpine-induced ptosis), i.p.

Experimental: The antidepressant properties of the compounds employed in the methods of the present invention are determined by measuring their ability to counteract ptosis induced in animals by the intraperitoneal injection of reserpine. […] Forty-five minutes after the administration of reserpine, the presence or absence of ptosis is noted. The percent inhibition of ptosis is noted and the median effective dose (ED50) of each test ingredient which protected 50% of the test mice from reserpine-induced ptosis was calculated.

Compound | inhibition of reserpine-induced ptosis (in words) | ED50 [1] | ED50 [2] | ED50 (po, read-out: ED50 (median effective dose protecting 50% of mice from reserpine-induced ptosis), oral)
COc1ccc(NC(=S)NCCO)cc1OC [3,4-dimethoxy] | did not inhibit reserpine-induced ptosis |  |  | 
Cc1ccc(CNC(=S)NCCO)c(C)c1 [Compound 1, 1-(2,4-dimethylbenzyl)-3-(2-hydroxyethyl)thiourea] |  | 6.8 mg/kg | 11 mg/kg | 
COc1ccc(NC(=S)NCCO)c(C)c1 [Compound 2, 1-(4-methoxy-2-methylphenyl)-3-(2-hydroxyethyl)thiourea] |  | 16.2 mg/kg | 10 mg/kg | 
COc1ccccc1NC(=S)NCCO [Compound 2-methoxy] | did not inhibit reserpine-induced ptosis |  |  | 
COc1ccc(NC(=S)NCCO)c(OC)c1 [Compound 3, 1-(2,4-dimethoxyphenyl)-3-(2-hydroxyethyl)thiourea] |  |  | 38 mg/kg | 
CN(C)CCC=C1c2ccccc2COc2ccccc21 [Doxepin] |  | 27 mg/kg | 27 mg/kg | 
CN(C)CCCN1c2ccccc2CCc2ccccc21 [Imipramine] |  |  |  | 14 mg/kg
